# Measured values published in patent US20250122174A1 (Shenzhen Yuanli Shenwan Innovative Medicine Co., Ltd., priority 2022, published 2025).
# Where a name gives a salt, the structure may show the parent alone.
# Target: HPK1 (Homo sapiens (Human), UniProt Q92918)
# Test: HPK1 Inhibition Assay (ADP-Glo kinase assay)
# Type: biochemical
# Conditions: ATP 10 μM
# Procedure, shortened: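 ADP-Glo luminescence read-out after 1 h room-temperature kinase reaction with 10 μM ATP and 0.1 μg/ml MBP. Recombinant human HPK1 at 7.5 ng/μl; buffer 40 mM Tris pH 7.5, 20 mM MgCl2. Compounds serially diluted 5-fold over 10 points from 10 mM DMSO stock.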
# Chain of HPK1 (Q92918 1-346 limits assumed): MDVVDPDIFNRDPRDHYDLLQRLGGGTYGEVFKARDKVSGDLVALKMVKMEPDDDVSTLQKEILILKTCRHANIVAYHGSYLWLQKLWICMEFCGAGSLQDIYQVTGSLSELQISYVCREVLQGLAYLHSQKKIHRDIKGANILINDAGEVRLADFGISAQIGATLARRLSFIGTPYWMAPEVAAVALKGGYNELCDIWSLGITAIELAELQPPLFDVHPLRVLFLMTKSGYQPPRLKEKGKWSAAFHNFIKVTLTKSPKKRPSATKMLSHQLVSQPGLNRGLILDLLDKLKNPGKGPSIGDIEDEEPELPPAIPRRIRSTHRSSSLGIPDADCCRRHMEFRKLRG
row,IC50 [nM],Compound
1,< 100,"Cc1nn(C(C)C)c2ccc(NC(=O)c3ccc(=O)n(-c4c(F)cccc4F)n3)c(N3CC[C@@H](N)C3)c12 [Example 195, (R)-N-(4-(3-aminopyrrolidin-1-yl)-1-isopropyl-3-methyl-1H-indazol-5-yl)-1-(2,6-difluorophenyl)-6-oxo-1,6-dihydropyridazine-3-carboxamide]"
2,< 100,"CC(C)n1nc2c(F)cc(NC(=O)c3ccc(=O)n(-c4c(F)cccc4F)n3)c(N3CC[C@@H](N)C3)c2c1Cl [Example 223, (R)-N-(4-(3-aminopyrrolidin-1-yl)-3-chloro-7-fluoro-2-isopropyl-2H-indazol-5-yl)-1-(2,6-difluorophenyl)-6-oxo-1,6-dihydropyridazine-3-carboxamide]"
3,< 100,"CC(C)n1ncc2c(N3CCC[C@@H](N)C3)c(NC(=O)c3ccc(=O)n(-c4c(F)cccc4F)n3)ccc21 [Example 183, (R)-N-(4-(3-aminopiperidin-1-yl)-1-isopropyl-1H-indazol-5-yl)-1-(2,6-difluorophenyl)-6-oxo-1,6-dihydropyridazine-3-carboxamide]"
4,< 100,"CC1(C)CN(c2c(NC(=O)c3ccc(=O)n(-c4c(F)cccc4F)n3)ccc3nn(C(C)(C)C)cc23)C[C@@H]1N [Example 236, (R)-N-(4-(4-amino-3,3-dimethylpyrrolidin-1-yl)-2-(tert-butyl)-2H-indazol-5-yl)-1-(2,6-difluorophenyl)-6-oxo-1,6-dihydropyridazine-3-carboxamide]"
5,< 100,"CC1(C)CN(c2c(NC(=O)c3ccc(=O)n(-c4c(F)cccc4F)n3)ccc3nn(C4(C(F)(F)F)CC4)cc23)C[C@@H]1N (single isomer, unassigned) [Example 314]"
6,100 to 1000,"Cc1nc2c(N3CC[C@H](N)C3)c(NC(=O)c3ccnn(-c4c(F)cccc4F)c3=O)ccc2n1C1CCOCC1 [Example 47, (S)—N-(4-(3-aminopyrrolidin-1-yl)-2-methyl-1-(tetrahydro-2H-pyran-4-yl)-1H-benzo[d]imidazol-5-yl)-2-(2,6-difluorophenyl)-3-oxo-2,3-dihydropyridazine-4-carboxamide trifluoroacetate]"
7,< 100,"N[C@H]1CN(c2c(NC(=O)c3ccc(=O)n(-c4c(F)cccc4F)n3)ccc3c2cnn3[C@@H]2CCOC2)CC12CC2 [Example 250, N-(4-((R)-7-amino-5-azaspiro[2.4]heptan-5-yl)-1-((R)-tetrahydrofuran-3-yl)-1H-indazol-5-yl)-1-(2,6-difluorophenyl)-6-oxo-1,6-dihydropyridazine-3-carboxamide]"
8,< 100,"C[C@H]1CN(c2c(NC(=O)c3ccc(=O)n(-c4c(F)cccc4F)n3)ccc3nn(C4(C)CC4)cc23)C[C@@H]1N [Example 310, N-(4-((3R,4S)-3-amino-4-methylpyrrolidin-1-yl)-2-(1-methylcyclopropyl)-2H-indazol-5-yl)-1-(2,6-difluorophenyl)-6-oxo-1,6-dihydropyridazine-3-carboxamide]"
9,100 to 1000,"COc1cccc(Cl)c1-c1nccc(C(=O)Nc2cc(F)ccc2N2C[C@H]3C[C@@H]2CN3)c1F [Example 6, N-(2-((1R,4R)-2,5-diazabicyclo[2.2.1]heptan-2-yl)-5-fluorophenyl)-2-(2-chloro-6-methoxyphenyl)-3-fluoroisonicotinamide]"
10,< 100,"CO[C@@H]1CN(c2c(NC(=O)c3ccc(=O)n(-c4c(F)cccc4F)n3)ccc3c2cnn3C(C)C)C[C@H]1N [Example 201, N-(4-((35,4S)-3-amino-4-methoxypyrrolidin-1-yl)-1-isopropyl-1H-indazol-5-yl)-1-(2,6-difluorophenyl)-6-oxo-1,6-dihydropyridazine-3-carboxamide]"
11,< 100,"Cn1c(C(F)(F)F)nc2c(N3CCC[C@H]3CN)c(NC(=O)c3ccnn(-c4c(F)cccc4F)c3=O)ccc21 [Example 40, (S)-N-(4-(2-(aminomethyl)pyrrolidin-1-yl)-1-methyl-2-(trifluoromethyl)-1H-benzo[d]imidazol-5-yl)-2-(2,6-difluorophenyl)-3-oxo-2,3-dihydropyridazine-4-carboxamide]"
12,< 100,"N#Cc1ccncc1-c1ccc(NC(=O)c2ccc(=O)n(-c3c(F)cccc3F)n2)c(N2CC[C@](N)(C(F)(F)F)C2)c1 (single isomer, unassigned) [Example 359]"
13,< 100,"CC(C)c1nc2c(N3CCC[C@H]3CN)c(NC(=O)c3ccc(=O)n(-c4c(F)cccc4F)n3)ccc2n1C [Example 134, (S)-N-(4-(2-(aminomethyl)pyrrolidin-1-yl)-2-isopropyl-1-methyl-1H-benzo[d]imidazol-5-yl)-1-(2,6-difluorophenyl)-6-oxo-1,6-dihydropyridazine-3-carboxamide]"
14,< 100,"N[C@@H]1CCN(c2c(NC(=O)c3ccc(=O)n(-c4c(F)cccc4F)n3)ccc3c2cnn3C2CCCC2)C1 [Example 287, (R)-N-(4-(3-aminopyrrolidin-1-yl)-1-cyclopentyl-1H-indazol-5-yl)-1-(2,6-difluorophenyl)-6-oxo-1,6-dihydropyridazine-3-carboxamide]"
15,< 100,"CC1(C)CN(c2c(NC(=O)c3ccc(=O)n(-c4c(F)cccc4F)n3)ccc3nn([C@H]4CCOC4)cc23)C[C@@H]1N [Example 324, N-(4-((R)-4-amino-3,3-dimethylpyrrolidin-1-yl)-2-((S)-tetrahydrofuran-3-yl)-2H-indazol-5-yl)-1-(2,6-difluorophenyl)-6-oxo-1,6-dihydropyridazine-3-carboxamide]"
16,< 100,"Cc1nc2c(N3CC[C@@H](N)C3)c(NC(=O)c3ccc(=O)n(-c4c(F)cccc4F)n3)ccc2n1C [Example 73, (R)-N-(4-(3-aminopyrrolidin-1-yl)-1,2-dimethyl-1H-benzo[d]imidazol-5-yl)-1-(2,6-difluorophenyl)-6-oxo-1,6-dihydropyridazine-3-carboxamide]"
17,< 100,"C[C@@H]1CN(c2c(NC(=O)c3ccc(=O)n(-c4c(F)cccc4F)n3)cc(F)c3c2cnn3C)C[C@@H]1N [Example 170, N-(4-((3R,4R)-3-amino-4-methylpyrrolidin-1-yl)-7-fluoro-1-methyl-1H-indazol-5-yl)-1-(2,6-difluorophenyl)-6-oxo-1,6-dihydropyridazine-3-carboxamide]"
18,< 100,"Cn1cc2c(N3CCC(N)CC3)c(NC(=O)c3ccc(=O)n(-c4c(F)cccc4F)n3)ccc2n1 [Example 177, N-(4-(4-aminopiperidin-1-yl)-2-methyl-2H-indazol-5-yl)-1-(2,6-difluorophenyl)-6-oxo-1,6-dihydropyridazine-3-carboxamide]"
19,< 100,"Cn1c(C2(C(F)(F)F)CC2)nc2c(N3CC[C@@H](N)C3)c(NC(=O)c3ccc(=O)n(-c4c(F)cccc4F)n3)ccc21 [Example 146, (R)—N-(4-(3-aminopyrrolidin-1-yl)-1-methyl-2-(1-(trifluoromethyl)cyclopropyl)-1H-benzo[d]imidazol-5-yl)-1-(2,6-difluorophenyl)-6-oxo-1,6-dihydropyridazine-3-carboxamide]"
20,< 100,"COc1cccc(F)c1-c1cccc(C(=O)Nc2cc(F)c3nn(C)cc3c2N2C[C@@H](N)C[C@H]2CO)[n+]1[O-] [Example 63, 2-((4-((2S,4S)-4-amino-2-(hydroxymethyl)pyrrolidin-1-yl)-7-fluoro-2-methyl-2H-indazol-5-yl)carbamoyl)-6-(2-fluoro-6-methoxyphenyl)pyridine 1-oxide]"
21,< 100,"CC(C)c1nc2c(N3CC[C@](N)(CO)C3)c(NC(=O)c3ccc(=O)n(-c4c(F)cccc4F)n3)ccc2n1C (single isomer, unassigned) [Example 125]"
22,< 100,"N#Cc1ccncc1-c1ccc(NC(=O)c2ccc(=O)n(-c3c(F)cccc3Cl)n2)c(N2C[C@@H](N)C[C@H]2CO)c1 [Example 361, N-(2-((2S,4S)-4-amino-2-(hydroxymethyl)pyrrolidin-1-yl)-4-(4-cyanopyridin-3-yl)phenyl)-1-(2-chloro-6-fluorophenyl)-6-oxo-1,6-dihydropyridazine-3-carboxamide]"
23,< 100,"Cc1nc2c(N3C[C@H]4C[C@@H]3CN4)c(NC(=O)c3ccc(=O)n(-c4c(F)cccc4F)n3)ccc2n1C [Example 80, N-(4-((1R,4R)-2,5-diazabicyclo[2.2.1]heptan-2-yl)-1,2-dimethyl-1H-benzo[d]imidazol-5-yl)-1-(2,6-difluorophenyl)-6-oxo-1,6-dihydropyridazine-3-carboxamide]"
24,< 100,"N#Cc1ccncc1-c1ccc(NC(=O)c2ccc(=O)n(-c3c(F)cccc3F)n2)c(N2CCC(F)(F)[C@@H](N)C2)c1 [Example 357, (S)-N-(2-(3-amino-4,4-difluoropiperidin-1-yl)-4-(4-cyanopyridin-3-yl)phenyl)-1-(2,6-difluorophenyl)-6-oxo-1,6-dihydropyridazine-3-carboxamide]"
25,< 100,"[2H]C([2H])([2H])C(n1ncc2c(N3C[C@@H](C)[C@@H](N)C3)c(NC(=O)c3ccc(=O)n(-c4c(F)cccc4F)n3)ccc21)C([2H])([2H])[2H] [Example 278, N-(4-((3R,4R)-3-amino-4-methylpyrrolidin-1-yl)-1-(propan-2-yl-1,1,1,3,3,3-d6)-1H-indazol-5-yl)-1-(2,6-difluorophenyl)-6-oxo-1,6-dihydropyridazine-3-carboxamide]"
26,< 100,"C[C@@H]1CN(c2c(NC(=O)c3ccc(=O)n(-c4c(F)cccc4F)n3)ccc3c2cnn3CC(F)(F)F)C[C@@H]1N [Example 291, N-(4-((3R,4R)-3-amino-4-methylpyrrolidin-1-yl)-1-(2,2,2-trifluoroethyl)-1H-indazol-5-yl)-1-(2,6-difluorophenyl)-6-oxo-1,6-dihydropyridazine-3-carboxamide]"
27,< 100,"CC(C)c1nc2c(N3CC[C@@H](CN)C3)c(NC(=O)c3ccc(=O)n(-c4c(F)cccc4F)n3)ccc2n1C [Example 116, (S)-N-(4-(3-(aminomethyl)pyrrolidin-1-yl)-2-isopropyl-1-methyl-1H-benzo[d]imidazol-5-yl)-1-(2,6-difluorophenyl)-6-oxo-1,6-dihydropyridazine-3-carboxamide]"
